Assay results taken from PubChem BioAssay (NCI).
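A five-concentration, 48-hour dose response in 96-well plates underlies each endpoint, interpolated linearly between surrounding concentrations. GI50: concentration for 50% inhibition of growth. TGI marks complete inhibition of growth.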

How the values were obtained:
Experiment in all cases: inhibition of tumour cell growth, NCI panel, 48 h
RPMI-8226 leukemia = system: RPMI-8226 leukemia
CCRF-CEM leukemia = system: CCRF-CEM leukemia
SK-OV-3 ovarian = system: SK-OV-3 ovarian
OVCAR-3 ovarian = system: OVCAR-3 ovarian
MDA-MB-435 = system: MDA-MB-435
MOLT-4 leukemia = system: MOLT-4 leukemia
COLO 205 colon = system: COLO 205 colon
NCI-H460 lung = system: NCI-H460 lung
CAKI-1 renal = system: CAKI-1 renal
NCI-H522 lung = system: NCI-H522 lung

| Structure (SMILES) | TGI (RPMI-8226 leukemia) [µM] | TGI (CCRF-CEM leukemia) [µM] | TGI (SK-OV-3 ovarian) [µM] | TGI (OVCAR-3 ovarian) [µM] | TGI (MDA-MB-435) [µM] | TGI (MOLT-4 leukemia) [µM] | TGI (COLO 205 colon) [µM] | TGI (NCI-H460 lung) [µM] | TGI (CAKI-1 renal) [µM] | TGI (NCI-H522 lung) [µM] | GI50 (RPMI-8226 leukemia) [µM] | GI50 (CCRF-CEM leukemia) [µM] | GI50 (SK-OV-3 ovarian) [µM] | GI50 (OVCAR-3 ovarian) [µM] | GI50 (MDA-MB-435) [µM] | GI50 (MOLT-4 leukemia) [µM] | GI50 (NCI-H522 lung) [µM] | GI50 (COLO 205 colon) [µM] | GI50 (NCI-H460 lung) [µM] | GI50 (CAKI-1 renal) [µM] |
| --- | --- | --- | --- | --- | --- | --- | --- | --- | --- | --- | --- | --- | --- | --- | --- | --- | --- | --- | --- | --- |
| O=C(c1ccccc1)C1N=NCC1c1ccc([N+](=O)[O-])cc1 (stereo not given) | > 100 | > 100 | > 100 | 48.4 | > 100 | 72.9 | > 100 | > 100 | 44.5 |  |  |  |  |  |  |  |  |  |  |  |
| C=C1C(=O)O[C@H]2[C@H]1[C@H](OC(=O)/C(C)=C\C)CC(=C)[C@@H]1[C@H](O)[C@H]3O[C@@]3(C)[C@@]12O | > 100 | > 100 | > 100 | > 100 |  |  | > 100 | > 100 | > 100 | > 100 |  |  |  |  |  |  |  |  |  |  |
| C=CCC1([C@H](C)[C@@H](OC(C)=O)c2cc(OC)c(OC)c(OC)c2)C[C@@H](OC)CCC1=O (stereo not given in full) | 50.3 | 51.7 | > 100 | 50.5 |  | 94.3 | 42.2 | 62.4 | > 100 | 25.4 |  |  |  |  |  |  |  |  |  |  |
| CC(=O)NNc1nc(C)c(C(=O)NNC(=O)C(=O)Nc2ccccc2C#N)s1 | > 100 | > 100 | > 100 | > 100 |  | > 100 | > 100 | > 100 | > 100 | > 100 |  |  |  |  |  |  |  |  |  |  |
| COc1ccccc1NC(=O)CC(=O)N1N=C(C)C(N=Nc2ccc(S(N)(=O)=O)cc2)C1=O (stereo not given) | > 100 |  | > 100 | > 100 |  | > 100 | > 100 | > 100 | > 100 | > 100 |  |  |  |  |  |  |  |  |  |  |
| N#C/C(=C1\OC(=O)C(c2ccc(Br)cc2)=C1O)c1ccc(Br)cc1 | 43.6 | 51.1 | 39.9 | 28.2 |  | 57.1 | 34.5 | 30.4 | 35.6 | 25.6 |  |  |  |  |  |  |  |  |  |  |
| COc1ccc(-c2cc(=O)c3cc4c(cc3[nH]2)OCO4)c(OC)c1OC | > 100 | > 100 | > 100 | > 100 |  | > 100 | > 100 | > 100 | > 100 | > 100 |  |  |  |  |  |  |  |  |  |  |
| CC(=O)NC(CCCNCc1ccccc1)C(=O)NCc1ccccc1 (stereo not given) | > 100 | > 100 | > 100 | > 100 |  | > 100 | > 100 | > 100 | > 100 | > 100 |  |  |  |  |  |  |  |  |  |  |
| CCCC[C@H](NC(=O)[C@H]1CCCN1C)C(=O)N(C)[C@H](C[C@@H](OC(C)=O)c1nc(C(=O)N[C@@H](Cc2ccccc2)C[C@H](C)C(=O)OCC)cs1)C(C)C | 4.84 | 6.41 | > 33.3 | 6.38 | 0.00655 | 15.5 | 0.0961 | 4.04 |  | 0.0143 | 0.00399 | 0.0122 | 0.0969 | 0.0083 | < 0.00333 | 0.0258 | 0.00341 | 0.0132 | 0.0105 |  |
| N#CC(C(=O)/C(=N/NC(=O)c1ccccc1O)C(C#N)c1ccc(Cl)cc1)c1ccc(Cl)cc1 (stereo not given) | 53 | > 100 | 90.5 | 35.5 |  |  | 86.5 | 29.7 |  |  |  |  |  |  |  |  |  |  |  |  |
| CN(C(=O)C12C3C4C5C3C1(C(=O)O)C5C42)C(C)(C)C (stereo not given) | > 100 | > 100 | > 100 | > 100 |  | > 100 | 72.3 | > 100 | > 100 | > 100 |  |  |  |  |  |  |  |  |  |  |
| Nc1ccn(Cc2ccc(C34CC5CC(CC(C5)C3)C4)c(O)c2)c(=O)n1 | > 100 |  | > 100 | > 100 | > 100 | > 100 | > 100 | > 100 | > 100 | > 100 | > 100 |  | > 100 | 58.9 | > 100 | 54.4 | 40.9 | > 100 | > 100 | > 100 |
| COc1cc2c(cc1OC)C(N(C)C)C(c1ccccc1)=C2Cl (stereo not given) | 46.3 | > 100 | 45.9 | 40.8 |  | 39.6 | 32.6 | 39.2 |  | 21.7 |  |  |  |  |  |  |  |  |  |  |
| COc1cccc(NC(=O)CC(=O)N2N=C(N(CCC#N)c3ccc(Cl)cc3)CC2c2ccccc2)c1 (stereo not given) | > 100 | > 100 | > 100 | > 100 |  | > 100 | > 100 | > 100 | > 100 | > 100 |  |  |  |  |  |  |  |  |  |  |
| CC1=NOC(=O)/C1=C/c1ccccc1O |  | > 100 | > 100 | > 100 |  | > 100 | > 100 | > 100 | > 100 | > 100 |  |  |  |  |  |  |  |  |  |  |
| c1cc(-c2cn3ccsc3n2)ccn1 | > 81.4 | > 60.5 | > 100 | > 100 |  | > 100 | > 100 | > 100 | > 100 | > 100 |  |  |  |  |  |  |  |  |  |  |
| O=C([O-])c1ccccc1Nc1ccccn1.O=C([O-])c1ccccc1Nc1ccccn1.[Ni+2] | > 100 | > 100 | > 100 | > 100 |  | > 100 | > 100 | > 100 | > 100 | > 100 | > 100 | > 100 | > 100 | > 100 |  | 89.8 | > 100 | > 100 | > 100 | > 100 |
| Cc1ccc(/C=C2\CN(C(=O)OC(C)(C)C)C/C(=C\c3ccc(C)cc3)C2=O)cc1 |  | > 100 | 97.5 |  |  | > 41.9 | 4.08 | 10.7 | > 100 | > 100 | 0.329 | 0.587 |  | 0.352 |  | 0.805 | 0.159 | 0.597 | 0.124 | 0.576 |
| COC(=O)[C@@H](C)C[C@H](Cc1ccccc1)NC(=O)c1nc([C@@H](C[C@H](C(C)C)N(C)C(=O)[C@@H](NC(=O)[C@H]2CCCCN2C)C(C)C)OC(C)=O)sc1C | > 11.4 | > 16.7 | > 16.7 |  | < 0.00167 | > 16.7 | 0.00926 | > 16.7 |  | < 0.00167 | < 0.00167 | < 0.00167 | < 0.00167 | < 0.00167 | < 0.00167 | 0.00225 | < 0.00167 | < 0.00167 | < 0.00167 |  |
